According to US20180098954A1, “AMELIORATING AGENT FOR EXERCISE-INDUCED GASTROINTESTINAL DISORDERS” (AJINOMOTO CO., INC., priority 2015, published 2018):

What was measured:
[1] = test system: CD2F1 mice; experiment: feed intake after totally exhausting treadmill exercise for 3 consecutive days; assay type: in vivo; details: male CD2F1 mice; normal diet added with cystine (2%) in place of casein for 8 days; after totally exhausting exercise for 3 consecutive days; versus exercise group; P<0.05 (FIG. 5)
Source text: Athletes are known to experience gastrointestinal upset and loss of appetite in scenes where intense training such as a camp training and the like are repeated. Therefore, the improving effect of cystine on exercise-induced decrease in appetite was studied by the following test. 6-Week-old male CD2F1 mice (Charles River Laboratories Japan, Inc.) were divided into 3 groups (non-exercise group, exercise group, and exercise+2% cystine group), and a normal diet (AIN-93G composition) was given to non-exercise group and exercise group, and a normal diet (AIN-93G composition) added with cystine (2%) in place of casein was given to exercise+2% cystine group, each for 8 days. Thereafter, exercise group and exercise+2% cystine group were made to run in a treadmill to total exhaustion for 3 consecutive days, and non-exercise group was not allowed to exercise (see FIG. 4). While exercise group and exercise+2% cystine group ran, non-exercise group was fasted and deprived of water. A new feed was given every day after completion of the totally exhausting exercise, recovered the next day and the amount of the remaining feed was measured, from which feed intake was calculated.

[2] = test system: CD2F1 mice; experiment: gastrointestinal tract permeability of FD4 (FITC-dextran) after 4 hr running in a hamster wheel; assay type: in vivo; details: male CD2F1 mice, FD4 500 mg/kg orally
Source text: It is known that high molecular weight substances that are not usually absorbed from the gastrointestinal tract penetrate the intestine and enter the blood when the barrier function of the gastrointestinal tract is declined (FIG. 1). Therefore, the improving effect of cystine on exercise-induced decline in gastrointestinal tract barrier function was studied by the following test. […] According to the method described in Cani et al., Gut 2009, 58(8) : 1091-1103, which is incorporated herein by reference in its entirety, FD4 concentration that leaked into the blood from the gastrointestinal tract was calculated by measuring the fluorescence intensity in the blood, based on which the gastrointestinal tract permeability of FD4 was evaluated (see FIG. 2). To be specific, blood was collected from the mice under isoflurane anesthesia, the collected blood was centrifuged to give plasma, the obtained plasma was diluted 2-fold with phosphate buffer, and fluorescence intensity was measured under the conditions of excitation wavelength: 485 nm, detection wavelength: 535 nm (measurement device SPECTRA MAX GEMINI EM Molecular Devices Japan). […] After completion of running, the gastrointestinal tract permeability of FD4 was evaluated in the same manner as in Example 1.

N[C@@H](CSSC[C@H](N)C(=O)O)C(=O)O [cystine]
relative feed intake after exercise (Pre run as 100%) [1]: significantly high as compared to the exercise group
FD4 concentration in blood (gastrointestinal tract permeability), compared to Gln+Ex ([2]; cystine (2%) diet versus glutamine (2%) diet for 7 days, blood after 1 hr (FIG. 3)): lower FD4 concentration in blood as compared to the group (Gln+Ex)
FD4 concentration in blood (gastrointestinal tract permeability), compared to Ex ([2]; normal diet added with cystine (2%) for 7 days, blood after 1 hr, versus exercise group on normal diet, P<0.05 (FIG. 3)): lower FD4 concentration in blood as compared to Ex
